Source: US9243281B2, “Neuroprotective chemicals and methods for identifying and using same” (Board of Regents of The University of Texas System, priority 2013, dated 2016)

Assays:
[1] = tested on: hippocampal neurogenesis (Dentate Gyrus); experiment: in vivo neurogenesis assay (BrdU+ cells in dentate gyrus); set-up: species or system mice; conditions: living mice; vehicle (DMSO) 7.3
From the text: The screen was simple in concept. With help from chemists in the Department of Biochemistry at UTSWMC, we selected 1,000 druglike chemicals from the 250,000 compounds in our high throughput screening center. The compounds were selected to preserve representative chemical diversity of the entire library. They were further selected to enhance the representation of chiral molecules, and to avoid untoward chemical properties such as reactive moieties. The 1,000 molecules were randomly pooled into groups of ten, and each pool was administered directly into the left ventricle of two adult mice. Intracranial delivery was facilitated by stereotactic positioning of a canula fed directly by an Alzet mini-pump containing the mixture of ten chemicals. The drug mixture was administered over a week-long period at concentrations anticipated to deliver mid-nanomolar levels of the ten test compounds. Daily injections of the thymidine analog, bromodeoxyuridine (BrdU), were coadministered in order to monitor the formation of new hippocampal nerve cells. Following compound administration, animals were sacrificed such that brain tissue could be recovered, sectioned and stained with antibodies to BrdU. […]

p70 (NAMPT) = target: T1, p70 (NAMPT) (Homo sapiens, UniProt P43490); experiment: binding competition for photo-crosslinking of P7C3-S326 to p70 in H2122 cells; conditions: 0.3 μM P7C3-S326 plus 5 μM competitor, p70 band intensity, P7C3-S326 alone compared with plus competitor, vehicle 1.0
T1 construct: endogenous in cells; host or cells: H2122 lung cancer cells
T1 sequence (P43490 whole entry): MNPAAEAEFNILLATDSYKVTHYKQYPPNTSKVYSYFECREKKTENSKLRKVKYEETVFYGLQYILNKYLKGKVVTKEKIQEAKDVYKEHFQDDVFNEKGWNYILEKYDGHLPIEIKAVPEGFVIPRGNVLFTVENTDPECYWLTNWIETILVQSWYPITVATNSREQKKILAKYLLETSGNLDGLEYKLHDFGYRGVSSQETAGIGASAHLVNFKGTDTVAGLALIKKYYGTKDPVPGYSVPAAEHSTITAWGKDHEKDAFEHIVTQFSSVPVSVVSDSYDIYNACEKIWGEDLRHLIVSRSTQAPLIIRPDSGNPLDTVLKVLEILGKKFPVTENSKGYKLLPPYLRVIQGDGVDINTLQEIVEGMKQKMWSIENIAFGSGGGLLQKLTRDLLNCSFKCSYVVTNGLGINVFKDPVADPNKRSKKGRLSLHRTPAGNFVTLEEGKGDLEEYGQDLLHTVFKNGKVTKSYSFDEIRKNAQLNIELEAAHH
Protocol: Cultured cells were co-exposed to P7C3-S326 (0.3 uM) and the individual P7C3 variants (5 uM), exposed to UV light, lysed, clicked to a fluorescent dye and run on SDS gels (FIG. 11).
P7C3-S326 was diluted to 0.3 μM in culture medium to treat H2122 cells. After incubation at 37° C. for 2 hours, H2122 cells were irradiated for 15 minutes under 306 nm ultraviolet light in a Stratalinker 2400 (Stratagene). Cells were then harvested by dissolving in 1% SDS lysis buffer 50 mM HEPES, pH 8.0, 2 mM MgCl2, 10 mM KCl, 1% SDS, 50 units/ml of Benzonase (Sigma), supplemented with Sigmafast protease inhibitor (Sigma).
The reaction was incubated at room temperature with constant agitation at 1,000 rpm on a thermomixer (Eppendorf) for 1 hour. Samples were then mixed with SDS sample loading buffer and loaded on an 8% SDS-PAGE gel, separated, and imaged using a Typhoon imager (filter settings: excitation 533 nm, emission 555 nm, and high sensitivity).
H2122 cells were incubated with the P7C3-S326 (0.3 μM) in the absence or presence of P7C3 analogs for 2 hours following by UV crosslinking. […] The samples were run on SDS-PAGE gels scanned using a Typhoon Imager. The p70 band intensity was analyzed and quantified by Image J, and the relative intensity in each assay was normalized to that of the DMSO control.

Row | SMILES | Neurogenesis # BrdU+ Cells (X10E06)/mm3 Dentate Gyrus [1] | Binding competition (p70 (NAMPT))
1 | O=C(O)c1cc2c3ccccc3n(CC(O)COc3ccccc3)c2cn1 (centres unmarked) [S172] | 14.2 (X10E06)/mm3 | 1.1
2 | OCc1cc2c(cn1)[nH]c1ccc(Br)cc12 [S204] | 14.2 (X10E06)/mm3 | 2.3
3 | OCCCc1cn(CC(O)Cn2c3ccc(Br)cc3c3cc(Br)ccc32)nn1 (centres unmarked) [S23] | 7.4 (X10E06)/mm3 | 2.1
4 | OC(COc1ccccc1)Cn1c2ccncc2c2cc(Br)ccc21 (centres unmarked) [S183] | 7.7 (X10E06)/mm3 | 4.0
5 | Cc1cc2c3cc(Br)ccc3n(CC(O)COc3ccccc3)c2cn1 (centres unmarked) [S190] | 8.4 (X10E06)/mm3 | 4.1
6 | FC(COc1ccccc1)Cn1c2ccc(Br)cc2c2cc(Br)ccc21 (centres unmarked) [S42] | 11.7 (X10E06)/mm3 | 1.7
7 | OC(CSc1ccccc1)CN1c2ccccc2CCc2ccccc21 (centres unmarked) [S134] | 9.7 (X10E06)/mm3 | 1.9
8 | OC(Cn1c2ccc(Br)cc2c2cc(Br)ccc21)Cn1c2ccc(Br)cc2c2cc(Br)ccc21 [S34] | 7.6 (X10E06)/mm3 | 1.0
9 | Cc1ccc2c(c1)c1cc(Br)ccc1n2CC(=O)O [S240] | 14.3 (X10E06)/mm3 | 1.7
10 | CCOC(=O)c1cc2c3cc(Br)ccc3n(CC(O)COc3ccccc3)c2cn1 (centres unmarked) [S174] | 9.3 (X10E06)/mm3 | 1.8
11 | CC(C)(O)Cn1c2ccc(Br)cc2c2cc(Br)ccc21 [S169] | 9.2 (X10E06)/mm3 | 3.0
12 | CCOc1cccc(NCC(O)Cn2c3ccc(Br)cc3c3cc(Br)ccc32)c1 (centres unmarked) [S24] | 8.0 (X10E06)/mm3 | 3.1
13 | CCOC(=O)C1=C[C@]2(CC)CCCN3CCc4c(n1c1ccccc41)[C@@H]32 [S199] | 13.3 (X10E06)/mm3 | 1.1
14 | OC(CNC1CCCCC1)Cn1c2ccc(Br)cc2c2cc(Br)ccc21 (centres unmarked) [S109] | 9.4 (X10E06)/mm3 | 1.2
15 | OC(COc1ccccc1)Cn1c2c(c3cc(Br)ccc31)CNCC2 (centres unmarked) [S105] | 10.8 (X10E06)/mm3 | 1.2
16 | O=C(O)c1ccc2c(c1)c1cc(Br)ccc1n2CC(O)COc1ccccc1 (centres unmarked) [S153] | 10.7 (X10E06)/mm3 | 1.4
17 | COc1cccc(NCC(O)Cn2c3ccc(Cl)cc3c3cc(Cl)ccc32)c1 (centres unmarked) [S15] | 7.6 (X10E06)/mm3 | 5.3
18 | N#Cc1ccc2[nH]c3ccc(Br)cc3c2c1 [S216] | 13.0 (X10E06)/mm3 | 4.4
19 | NC(=O)c1ccc2[nH]c3ccc(Br)cc3c2c1 [S223] | 7.9 (X10E06)/mm3 | 3.0
20 | O=c1ccccn1CC(O)Cn1c2ccc(Br)cc2c2cc(Br)ccc21 (centres unmarked) [S137] | 12.2 (X10E06)/mm3 | 4.5
21 | CNCCCN1c2ccccc2CCc2ccccc21.Cl [S87, Desipramine, reference compound] | 14.7 (X10E06)/mm3 | 1.2
22 | OC(CNc1ccncc1)Cn1c2ccc(Br)cc2c2cc(Br)ccc21 (centres unmarked) [S45] | 8.0 (X10E06)/mm3 | 1.2
